Source: patent US10450316B2, “Certain protein kinase inhibitor” (Chongqing Fochon Pharmaceutical Co., Ltd., priority 2015, dated 2019)

System: BE(2)-C cell
Experiment: Cell proliferation assay (MTS) in BE(2)-C cells
Format: cell-based
Conditions: Homo sapiens, inhibition of BE(2)-C cell proliferation, 48 h
Method in brief: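 BE(2)-C cells (3000/well, DMEM + 10% FBS) were treated for 48 h at 37 °C with compound at 1.5–10000 nM in nine concentrations. Viability was measured by MTS (2 h, stopped with SDS) at 490/650 nm, and IC50 was calculated from the dose-response.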

Row | SMILES | IC50
1 | FC[C@@H]1CCc2nc3c(F)cc(-c4nc(Nc5ccc(CN6CCC7(CCNCC7)CC6)cn5)ncc4F)cc3n21 [Example 29, (S)-N-(5-((3,9-diazaspiro[5.5]undecan-3-yl)methyl)pyridin-2-yl)-5-fluoro-4-(5-fluoro-1-(fluoromethyl)-2,3-dihydro-1H-benzo[d]pyrrolo[1,2-a]imidazol-7-yl)pyrimidin-2-amine] | > 0.1 µM
2 | CN1CC2CCC(C1)N2Cc1ccc(Nc2ncc(F)c(-c3cc(F)c4nc5n(c4c3)C(C)(C)CC5)n2)nc1 [Example 127, 5-fluoro-4-(5-fluoro-1,1-dimethyl-2,3-dihydro-1H-benzo[d]pyrrolo[1,2-a]imidazol-7-yl)-N-(5-((3-methyl-3,8-diazabicyclo[3.2.1]octan-8-yl)methyl)pyridin-2-yl)pyrimidin-2-amine] | < 0.01 µM
3 | Fc1cnc(Nc2ccc(CN3CC4CNC4C3)cn2)nc1-c1cc(F)c2nc3n(c2c1)C1(CC3)CC1 (stereo not drawn) [Example 141, N-(5-((3,6-diazabicyclo[3.2.0]heptan-3-yl)methyl)pyridin-2-yl)-5-fluoro-4-(5-fluoro-2,3-dihydro-spiro[benzo[d]pyrrolo[1,2-a]imidazole-1,1′-cyclo-propan]-7-yl)pyrimidin-2-amine] | > 1 µM
4 | Fc1cnc(Nc2ccc(CN3CCN4CCC[C@@H]4C3)cn2)nc1-c1cc(F)c2nc3n(c2c1)C1(CC3)CC1 [Example 145, (R)-5-fluoro-4-(5-fluoro-2,3-dihydrospiro[benzo [d]pyrrolo[1,2-a]imidazole-1,1′-cyclopropan]-7-yl)-N-(5-((hexahydropyrrolo[1,2-a]pyrazin-2(1H)-yl)methyl)pyridin-2-yl)pyrimidin-2-amine] | 0.01 to 0.1 µM
5 | CCN1CCC2(CC1)CCN(Cc1ccc(Nc3ncc(F)c(-c4cc(F)c5nc6n(c5c4)[C@H](C)CC6)n3)nc1)CC2 [Example 94, (R)-N-(5-((9-ethyl-3,9-diazaspiro[5.5]undecan-3-yl)methyl)pyridin-2-yl)-5-fluoro-4-(5-fluoro-1-methyl-2,3-dihydro-1H-benzo[d]pyrrolo[1,2-a]imidazol-7-yl)pyrimidin-2-amine] | > 0.1 µM
6 | C[C@@H]1CCc2nc3c(F)cc(-c4nc(Nc5ccc(CN6CCC7(CCNCC7)CC6)cn5)ncc4F)cc3n21 [Example 92, (R)-N-(5-((3,9-diazaspiro[5.5]undecan-3-yl)methyl)pyridin-2-yl)-5-fluoro-4-(5-fluoro-1-methyl-2,3-dihydro-1H-benzo[d]pyrrolo[1,2-a]imidazol-7-yl)pyrimidin-2-amine] | > 0.1 µM
7 | CN1CC2(C1)CN(Cc1ccc(Nc3ncc(F)c(-c4cc(F)c5nc6n(c5c4)C(C)(C)CC6)n3)nc1)C2 [Example 118, 5-fluoro-4-(5-fluoro-1,1-dimethyl-2,3-dihydro-1H-benzo[d]pyrrolo[1,2-a]imidazol-7-yl)-N-(5-((6-methyl-2,6-diazaspiro[3.3]heptan-2-yl)methyl)pyridin-2-yl)pyrimidin-2-amine] | 0.01 to 0.1 µM
8 | C[C@@H]1CCc2nc3c(F)cc(-c4nc(Nc5ccc(CN6C7CCC6CNC7)cn5)ncc4F)cc3n21 [Example 101, N-(5-((3,8-diazabicyclo[3.2.1]octan-8-yl)methyl)pyridin-2-yl)-5-fluoro-4-((R)-5-fluoro-1-methyl-2,3-dihydro-1H-benzo[d]pyrrolo[1,2-a]imidazol-7-yl)pyrimidin-2-amine] | > 0.1 µM
9 | CCN1CC2CCC(C1)N2Cc1ccc(Nc2ncc(F)c(-c3cc(F)c4nc5n(c4c3)[C@H](C)CC5)n2)nc1 [Example 103, N-(5-((3-ethyl-3,8-diazabicyclo[3.2.1]octan-8-yl)methyl)pyridin-2-yl)-5-fluoro-4-((R)-5-fluoro-1-methyl-2,3-dihydro-1H-benzo[d]pyrrolo[1,2-a]imidazol-7-yl)pyrimidin-2-amine] | 0.01 to 0.1 µM
10 | CN1C[C@@H]2C[C@H]1CN2Cc1ccc(Nc2ncc(F)c(-c3cc(F)c4nc5n(c4c3)C3(CC5)CC3)n2)nc1 [Example 136, 5-fluoro-4-(5-fluoro-2,3-dihydrospiro[benzo[d]pyrrolo[1,2-a]imidazole-1,1′-cyclopropan]-7-yl)-N-(5-(((1S,4S)-5-methyl-2,5-diazabicyclo[2.2.1]heptan-2-yl)methyl)pyridin-2-yl)pyrimidin-2-amine] | > 0.1 µM
11 | CC1(C)CCc2nc3c(F)cc(-c4nc(Nc5ccc(CN6CC7CCC(C6)N7)cn5)ncc4F)cc3n21 [Example 129, N-(5-((3,8-diazabicyclo[3.2.1]octan-3-yl)methyl)pyridin-2-yl)-5-fluoro-4-(5-fluoro-1,1-dimethyl-2,3-dihydro-1H-benzo[d]pyrrolo[1,2-a]imidazol-7-yl)pyrimidin-2-amine] | 0.01 to 0.1 µM
12 | Fc1cnc(Nc2ccc(CN3C4CCC3CNC4)cn2)nc1-c1cc(F)c2nc3n(c2c1)[C@H](C(F)(F)F)CC3 [Example 76, N-(5-((3,8-diazabicyclo[3.2.1]octan-8-yl)methyl)pyridin-2-yl)-5-fluoro-4-((S)-5-fluoro-1-(trifluoro-methyl)-2,3-dihydro-1H-benzo[d]pyrrolo[1,2-a]imidazol-7-yl)pyrimidin-2-amine] | 0.01 to 0.1 µM
13 | CCN1CCC2(CC1)CCN(Cc1ccc(Nc3ncc(F)c(-c4cc(F)c5nc6n(c5c4)[C@H](CF)CC6)n3)nc1)CC2 [Example 31, (S)-N-(5-((9-ethyl-3,9-diazaspiro[5.5]undecan-3-yl)methyl)pyridin-2-yl)-5-fluoro-4-(5-fluoro-1-(fluoromethyl)-2,3-dihydro-1H-benzo[d]pyrrolo[1,2-a]imidazol-7-yl)pyrimidin-2-amine] | > 0.1 µM
14 | CCN1CC2(CCN(Cc3ccc(Nc4ncc(F)c(-c5cc(F)c6nc7n(c6c5)[C@H](C(F)(F)F)CC7)n4)nc3)CC2)C1 [Example 66] | 0.01 to 0.1 µM
15 | CC1(C)CCc2nc3c(F)cc(-c4nc(Nc5ccc(CN6CC7CNCC7C6)cn5)ncc4F)cc3n21 (stereo not drawn) [Example 123, 5-fluoro-4-(5-fluoro-1,1-dimethyl-2,3-dihydro-1H-benzo[d]pyrrolo[1,2-a]imidazol-7-yl)-N-(5-((hexahydropyrrolo[3,4-c]pyrrol-2(1H)-yl)methyl)pyridin-2-yl)pyrimidin-2-amine] | > 0.1 µM
16 | CCN1CC2CCC(C1)N2Cc1ccc(Nc2cc(-c3cc(F)c4nc5n(c4c3)C(C)(C)CC5)c(F)cn2)nc1 [Example 163, N-(5-((3-ethyl-3,8-diazabicyclo[3.2.1]octan-8-yl)methyl)pyridin-2-yl)-5-fluoro-4-(5-fluoro-1,1-dimethyl-2,3-dihydro-1H-benzo[d]pyrrolo[1,2-a]imidazol-7-yl)pyridin-2-amine] | > 1 µM
17 | FC[C@@H]1CCc2nc3c(F)cc(-c4nc(Nc5ccc(CN6CCN7CCC[C@@H]7C6)cn5)ncc4F)cc3n21 [Example 19, 5-fluoro-4-((S)-5-fluoro-1-(fluoromethyl)-2,3-dihydro-1H-benzo[d]pyrrolo[1,2-a]imidazol-7-yl)-N-(5-(((R)-hexahydropyrrolo[1,2-a]pyrazin-2(1H)-yl)methyl)pyridin-2-yl)pyrimidin-2-amine] | < 0.01 µM
18 | CCN1CCC2(CC1)CCN(Cc1ccc(Nc3ncc(F)c(-c4cc(F)c5nc6n(c5c4)[C@H](C(F)F)CC6)n3)nc1)CC2 [Example 53, (S)-4-(1-(difluoromethyl)-5-fluoro-2,3-dihydro-1H-benzo[d]pyrrolo[1,2-a]imidazol-7-yl)-N-(5-((9-ethyl-3,9-diazaspiro[5.5]undecan-3-yl)methyl)pyridin-2-yl)-5-fluoropyrimidin-2-amine] | > 0.1 µM
19 | CCN1CC2CCC(C1)N2Cc1ccc(Nc2ncc(F)c(-c3cc(F)c4nc5n(c4c3)C(C)(C)CC5)n2)nc1 [Example 128, N-(5-((3-ethyl-3,8-diazabicyclo[3.2.1]octan-8-yl)methyl)pyridin-2-yl)-5-fluoro-4-(5-fluoro-1,1-dimethyl-2,3-dihydro-1H-benzo[d]pyrrolo[1,2-a]imidazol-7-yl)pyrimidin-2-amine] | < 0.01 µM
20 | CC1(C)CCc2nc3c(F)cc(-c4nc(Nc5ccc(CN6CCC7(CC6)CNC7)cn5)ncc4F)cc3n21 [Example 114, N-(5-((2,7-diazaspiro[3.5]nonan-7-yl)methyl)pyridin-2-yl)-5-fluoro-4-(5-fluoro-1,1-dimethyl-2,3-dihydro-1H-benzo[d]pyrrolo[1,2-a]imidazol-7-yl)pyrimidin-2-amine] | > 0.1 µM
21 | O[C@@H]1C[C@H]2CN(Cc3ccc(Nc4ncc(F)c(-c5cc(F)c6nc7n(c6c5)C5(CC7)CC5)n4)nc3)CCN2C1 [Example 146, (7R,8aS)-2-((6-((5-fluoro-4-(5-fluoro-2,3-dihydro-spiro[benzo[d]pyrrolo[1,2-a]imidazole-1,1′-cyclo-propan]-7-yl)pyrimidin-2-yl)amino)pyridin-3-yl)methyl)octahydropyrrolo[1,2-a]pyrazin-7-ol] | > 1 µM
22 | CCN1CC2CCC(C1)N2Cc1ccc(Nc2cc(-c3cnc4nc5n(c4c3)C(C)(C)CC5)c(F)cn2)nc1 [Example 169, 4-(6,6-dimethyl-7,8-dihydro-6H-pyrrolo[1′,2′:1,2]imidazo[4,5-b]pyridin-3-yl)-N-(5-((3-ethyl-3,8-diazabicyclo[3.2.1]octan-8-yl)methyl)pyridin-2-yl)-5-fluoropyridin-2-amine] | > 0.1 µM
23 | CCN1C2CCC1CN(Cc1ccc(Nc3ncc(F)c(-c4cc(F)c5nc6n(c5c4)[C@H](C(F)(F)F)CC6)n3)nc1)C2 [Example 81, N-(5-((8-ethyl-3,8-diazabicyclo[3.2.1]octan-3-yl)methyl)pyridin-2-yl)-5-fluoro-4-((S)-5-fluoro-1-(trifluoromethyl)-2,3-dihydro-1H-benzo[d]pyrrolo [1,2-a]imidazol-7-yl)pyrimidin-2-amine] | 0.01 to 0.1 µM
24 | CC1(C)CCc2nc3c(F)cc(-c4nc(Nc5ccc(CN6CCN7CCC[C@@H]7C6)cn5)ncc4F)cc3n21 [Example 110, (R)-5-fluoro-4-(5-fluoro-1,1-dimethyl-2,3-dihydro-1H-benzo[d]pyrrolo[1,2-a]imidazol-7-yl)-N-(5-((hexahydropyrrolo[1,2-a]pyrazin-2(1H)-yl)methyl)pyridin-2-yl)pyrimidin-2-amine] | 0.01 to 0.1 µM
